Test results published in US20140309300A1, “Bicyclic Labdane Diterpenes for Use in the Treatment of TRPC6 Associated Diseases” (UNIVERSITAET LEIPZIG, priority 2011, published 2014).

Legend:
human TRPM3 = biological target: T1, human TRPM3 (Homo sapiens, UniProt Q9HCF6); test: Specificity test, calcium influx in hTRPM3 HEK293 cells; assay type: cell-based; conditions: FIG. 1
T1 construct: expressed in transfected cells; host or cells: HEK293 (line hTRPM3)
Method: (§1) HEK293 (ATCC CRL-1573) cells were grown in Earle's Minimum Essential Medium (MEM) supplemented with 10 Vol.-% fetal calf serum, 2 mM (mmol/l) L-glutamine, 100 units/ml penicillin and 0.1 mg/ml streptomycin. Cells were seeded in 35-mm culture dishes, grown for 24 h, and transfected at 80% confluence with 2 μg of plasmid DNA encoding a C-terminally YFP-tagged human TRPC6 and 4 μl of Fugene HD reagent (Roche) in 100 μl serum-free medium. To select stably transfected HEKhTRPC6-YFP clones, 1 mg/ml geneticin (G418) was added to the medium. […] To verify functional expression, different clones were isolated and tested by single-cell [Ca^2+]i imaging experiments. […]
(§2) To assess the effect of bicyclic labdane diterpenes on calcium transport via TRP channels, larixol and larixol acetate was added to cell lines from example 1. Blocking of the respective TRP channel was determined by determining increases in [Ca^2+]i in suspensions. To activate the TRP channels, an activator of the respective channel was added, and changes in fluorescence intensity of intracellularly loaded fluo-4 was determined with a multiwell plate reader device (Polarstar Omega, BMG Labtech). For HEKrTRPV1 cells, assessment of activation was performed by monitoring the intracellular acidification, which results in fluorescence loss of co-expressed YFP. […]

TRPC6 [1] = biological target: T2, TRPC6 (Homo sapiens, UniProt Q9Y210); test: Electrophysiological whole-cell recordings of TRPC6-mediated current; assay type: cell-based
T2 construct: expressed in transfected cells
T2 sequence (Q9Y210 1-931): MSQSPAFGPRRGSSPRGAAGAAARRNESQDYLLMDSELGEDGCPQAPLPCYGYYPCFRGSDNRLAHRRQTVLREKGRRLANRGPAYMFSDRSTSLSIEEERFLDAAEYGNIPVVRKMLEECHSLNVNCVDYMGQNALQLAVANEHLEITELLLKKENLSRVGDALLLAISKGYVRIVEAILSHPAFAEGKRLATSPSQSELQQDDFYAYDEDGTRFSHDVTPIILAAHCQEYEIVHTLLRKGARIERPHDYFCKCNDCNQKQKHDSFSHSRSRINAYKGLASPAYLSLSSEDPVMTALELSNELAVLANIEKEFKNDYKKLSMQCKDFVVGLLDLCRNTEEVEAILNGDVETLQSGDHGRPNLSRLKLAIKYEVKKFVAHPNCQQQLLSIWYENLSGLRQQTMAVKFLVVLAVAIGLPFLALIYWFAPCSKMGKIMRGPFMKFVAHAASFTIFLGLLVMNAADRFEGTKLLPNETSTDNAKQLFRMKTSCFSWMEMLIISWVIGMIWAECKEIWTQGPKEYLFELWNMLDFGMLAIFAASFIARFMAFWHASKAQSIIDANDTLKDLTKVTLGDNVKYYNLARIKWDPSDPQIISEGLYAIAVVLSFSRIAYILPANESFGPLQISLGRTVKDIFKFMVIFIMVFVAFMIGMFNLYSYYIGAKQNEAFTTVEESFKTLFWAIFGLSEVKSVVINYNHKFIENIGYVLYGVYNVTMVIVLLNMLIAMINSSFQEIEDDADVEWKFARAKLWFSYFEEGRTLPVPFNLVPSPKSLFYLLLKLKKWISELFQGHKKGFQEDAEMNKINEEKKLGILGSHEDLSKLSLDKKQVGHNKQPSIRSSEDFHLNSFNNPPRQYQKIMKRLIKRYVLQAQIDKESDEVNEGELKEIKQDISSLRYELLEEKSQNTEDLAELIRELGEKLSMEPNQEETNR
Method: FIG. 2 Larixol acetate acts from the outside of the cells. A: Electrophysiological whole-cell recordings were performed to determine the TRPC6-mediated current upon direct stimulation with 50 μM OAG or by activating heterotrimeric G-proteins with intracellularly applied AlF4 (50 μM), to trigger phospholipase C activation, resulting in the formation of endogenous diacylglycerols. To expose the cytosolic side of the channel protein to larixol acetate, larixol acetate was added to the intracellular solution (hatched bars and filled bars). Control solutions without larixol acetate (open bars) were measured in parallel.
TRPC6-expressing cells were seeded on glass coverslips, mounted onto the stage of an inverted microscope, and contacted with a borosilicate glass pipet filled with an intracellular solution. After reaching a gigaohm seal, the whole-cell configuration was obtained by gently applying a negative pressure at the pipet. Whole-cell currents were measured in the voltage clamped mode with a holding potential of −60 mV, and normalized for the cell size by dividing current amplitudes by the cellular capacitance (pA/pF). TRPC6 was activated either by adding OAG to the bath solution or by including 50 μM AlF4^− in the pipet solution.
In some experiments, the pipet solution was additionally supplemented with 1 μM larixol acetate to apply the modulator intracellularly (FIG. 2A, “inside”).

rat TRPV1 = biological target: T3, rat TRPV1 (Rattus norvegicus, UniProt O35433); test: Specificity test in HEKrTRPV1 cells (intracellular acidification, YFP fluorescence loss); assay type: cell-based; conditions: activator 2 μM capsaicin; FIG. 1
T3 construct: expressed in transfected cells; host or cells: HEK293 (line rTRPV1)
T3 sequence (O35433 whole entry): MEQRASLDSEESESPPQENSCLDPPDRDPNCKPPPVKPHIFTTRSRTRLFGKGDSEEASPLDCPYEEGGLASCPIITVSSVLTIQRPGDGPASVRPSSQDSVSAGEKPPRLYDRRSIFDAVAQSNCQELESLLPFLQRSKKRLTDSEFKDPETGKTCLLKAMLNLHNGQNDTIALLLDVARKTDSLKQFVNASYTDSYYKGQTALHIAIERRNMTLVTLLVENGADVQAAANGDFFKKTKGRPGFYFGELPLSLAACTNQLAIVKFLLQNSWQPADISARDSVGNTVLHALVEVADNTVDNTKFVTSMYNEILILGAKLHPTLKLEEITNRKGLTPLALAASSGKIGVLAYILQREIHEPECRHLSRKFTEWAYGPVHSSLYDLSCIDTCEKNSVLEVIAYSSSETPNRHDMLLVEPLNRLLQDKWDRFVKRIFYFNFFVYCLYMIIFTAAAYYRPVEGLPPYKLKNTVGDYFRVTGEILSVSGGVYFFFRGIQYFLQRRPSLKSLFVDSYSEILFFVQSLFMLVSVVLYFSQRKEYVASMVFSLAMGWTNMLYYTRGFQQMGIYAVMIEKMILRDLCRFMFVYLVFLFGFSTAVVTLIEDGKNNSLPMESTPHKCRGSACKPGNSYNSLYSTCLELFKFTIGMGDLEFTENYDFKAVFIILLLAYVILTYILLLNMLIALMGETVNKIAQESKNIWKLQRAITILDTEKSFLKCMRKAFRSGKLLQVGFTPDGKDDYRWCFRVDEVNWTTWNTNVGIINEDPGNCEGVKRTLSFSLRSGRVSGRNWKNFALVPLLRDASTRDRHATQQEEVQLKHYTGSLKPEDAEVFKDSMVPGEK
Method: as §1, §2

[2] = tested on: hypoxia-induced pulmonary vasoconstriction (HPV); test: Hypoxia-induced pulmonary vasoconstriction (HPV) in isolated perfused mouse lungs; assay type: in vivo; conditions: 5 μM in perfusion solution; isolated perfused C57BL/6 mouse lungs; 1% O2
Method: FIG. 4 Inhibition of hypoxia-induced pulmonary vasoconstriction (HPV) by larixol acetate.
To assess whether the TRPC6 blocking action of larixol acetate is potent to prevent HPV, larixol acetate was supplied in an induced mouse model of HPV.
Anesthetized, male adult C57BL/6 mice were subjected to tracheostomy, followed by volume-controlled normoxic ventilation. Midsternal thoracotomy was performed, and two cannulas (1 mm inner diameter) were inserted into the pulmonary artery and left atrium, respectively. Lungs were then perfused at a constant flow at 37° C. with a Hanks' Balanced Salt Solution (Sigma-Aldrich) containing 5% bovine serum albumin (Sigma-Aldrich) and 5% dextran (Sigma-Aldrich) at pH of 7.4. Indomethacin (30 μM) and N^G-nitro-L-arginine methylester (1 mM) were added to the perfusate to inhibit endogenous prostaglandin and nitric oxide synthesis.

lung edema formation = test: Ischemia-reperfusion-associated lung edema formation, rabbit lung transplantation model; assay type: in vivo; conditions: 5 μM in Perfadex and Tyrode solutions, explanted rabbit lungs
Method: FIG. 5 Inhibition of ischemia-reperfusion-associated lung edema formation by larixol acetate. Rabbit lungs were explanted and extracorporally perfused with Perfadex solution and ventilated under oxygenized conditions (open symbols) or under hypoxic conditions (filled symbols). Lungs were then placed on ice for 2 h, and reperfused for 90 min with tyrode solution. Upper panel: control experiments without larixol acetate, lower panel: similar experiments, but with Perfadex® and tyrode solutions that were supplemented with 5 μM larixol acetate. Increases in the lung wet weight indicate edema formation. Data represent means and S.E.M. (Standard error of the mean) of 6 individual experiments for each treatment group.
To assess whether larixol acetate mediated TRPC6 block can prevent endothelial dysfunction, the effect of larixol acetate was tested on lung edema formation in a rabbit lung transplantation model.
New Zealand white rabbits were anesthetized and subjected to tracheostomy. Animals were mechanically ventilated with room air (40 breaths min^−1) The thorax was opened by midline sternotomy, pulmonary arteries and the left atrium were cannulated, the heart-lung-block was excised and transferred to a thermostatted artificial thorax chamber. […] The wet weight of the lungs was recorded during the whole procedure. […]

human TRPM2 = biological target: T4, human TRPM2 (Homo sapiens, UniProt O94759); test: Specificity test, calcium influx in hTRPM2 HEK293 cells; assay type: cell-based; conditions: activator 1 mM H2O2; FIG. 1
T4 construct: expressed in transfected cells; host or cells: HEK293 (line hTRPM2)
T4 sequence (O94759 whole entry): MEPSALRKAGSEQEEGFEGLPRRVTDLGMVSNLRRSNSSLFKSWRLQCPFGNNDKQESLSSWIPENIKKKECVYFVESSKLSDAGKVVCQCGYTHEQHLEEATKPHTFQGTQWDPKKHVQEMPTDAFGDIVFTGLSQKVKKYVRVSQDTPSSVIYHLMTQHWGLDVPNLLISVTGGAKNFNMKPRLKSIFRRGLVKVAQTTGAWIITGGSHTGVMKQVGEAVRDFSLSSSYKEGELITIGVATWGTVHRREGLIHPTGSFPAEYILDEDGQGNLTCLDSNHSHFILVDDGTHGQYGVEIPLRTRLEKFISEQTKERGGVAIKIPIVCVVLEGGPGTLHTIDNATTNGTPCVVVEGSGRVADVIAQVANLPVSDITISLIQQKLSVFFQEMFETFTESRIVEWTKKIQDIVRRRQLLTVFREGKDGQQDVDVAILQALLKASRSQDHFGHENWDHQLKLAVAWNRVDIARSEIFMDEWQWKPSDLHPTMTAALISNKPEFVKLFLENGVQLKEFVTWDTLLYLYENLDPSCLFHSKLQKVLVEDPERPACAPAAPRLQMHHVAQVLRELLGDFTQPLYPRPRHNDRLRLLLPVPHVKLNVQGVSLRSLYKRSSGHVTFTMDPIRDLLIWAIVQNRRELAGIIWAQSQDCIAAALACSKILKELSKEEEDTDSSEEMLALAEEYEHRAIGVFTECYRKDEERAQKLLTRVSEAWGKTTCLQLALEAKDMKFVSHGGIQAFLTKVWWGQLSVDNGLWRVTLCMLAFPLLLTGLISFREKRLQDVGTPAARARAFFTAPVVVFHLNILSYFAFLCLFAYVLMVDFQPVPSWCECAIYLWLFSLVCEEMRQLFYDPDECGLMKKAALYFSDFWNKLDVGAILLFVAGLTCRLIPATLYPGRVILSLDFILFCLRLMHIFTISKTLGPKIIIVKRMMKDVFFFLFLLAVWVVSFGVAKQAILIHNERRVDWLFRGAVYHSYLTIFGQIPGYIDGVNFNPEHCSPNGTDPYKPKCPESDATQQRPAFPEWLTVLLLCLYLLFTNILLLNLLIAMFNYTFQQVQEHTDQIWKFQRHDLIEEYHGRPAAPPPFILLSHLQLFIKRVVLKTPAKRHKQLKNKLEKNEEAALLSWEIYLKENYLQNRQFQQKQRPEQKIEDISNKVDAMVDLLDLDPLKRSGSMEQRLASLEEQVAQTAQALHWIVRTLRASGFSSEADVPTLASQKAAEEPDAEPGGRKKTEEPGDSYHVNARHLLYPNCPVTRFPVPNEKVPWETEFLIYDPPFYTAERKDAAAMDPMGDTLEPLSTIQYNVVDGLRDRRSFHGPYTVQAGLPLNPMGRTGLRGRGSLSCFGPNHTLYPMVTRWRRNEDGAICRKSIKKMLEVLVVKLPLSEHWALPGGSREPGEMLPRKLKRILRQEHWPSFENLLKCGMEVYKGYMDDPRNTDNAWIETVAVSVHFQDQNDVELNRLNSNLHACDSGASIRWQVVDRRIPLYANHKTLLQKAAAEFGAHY
Method: as §1, §2

other TRP channels = test: Specificity tests in cell lines overexpressing other TRP channels; assay type: cell-based; conditions: FIG. 1
Method: as §1, §2

human TRPM8 = biological target: T5, human TRPM8 (Homo sapiens, UniProt Q7Z2W7); test: Specificity test, calcium influx in hTRPM8 HEK293 cells; assay type: cell-based; conditions: FIG. 1
T5 construct: expressed in transfected cells; host or cells: HEK293 (line hTRPM8)
Method: as §1, §2

HEK293 cells = test: Propidium iodide exclusion cytotoxicity assay; assay type: cell-based, human; conditions: concentrations up to 10 μM, 24 h incubation
Method: FIG. 3 Larixol and larixol acetate to not show a cytotoxic effect on HEK293 cells. The cellular integrity was determined by exclusion of the DNA-binding fluorescent dye propidium iodide (PI).
To assess possible cytotoxic effects of the larixol and larixol acetate, a propidium iodide exclusion assay was performed. Cells were grown in 24 well plates for 18 h and then incubated with the indicated compounds for another 24 h (FIG. 3). Propidium iodide (2 μg/ml, Invitrogen) was added, and the fluorescence (excitation at 544 nm and detection at 620 nm) was followed. To obtain a maximum reference value, 0.2% Triton X-100 was added to some samples prior to propidium iodide injection. The following controls were tested: • negative controls: HBS buffer (“control”), or 0.1% DMSO in HBS buffer, added to the growth medium in the same volume as for 10 μM larixol (“0.1% DMSO”). • positive controls: 2 μm staurosporine, 50 μm digitonin

TRPC6 [3] = biological target: T2, TRPC6; test: Calcium influx (fluo-4 [Ca2+]i) in TRPC6-expressing HEK293 cells; assay type: cell-based; conditions: 0.01 to 20 μM; activated with 50 μM OAG or GPCR agonist mix; FIG. 1
Method: as §1, §2

T1 sequence (Q9HCF6 whole entry): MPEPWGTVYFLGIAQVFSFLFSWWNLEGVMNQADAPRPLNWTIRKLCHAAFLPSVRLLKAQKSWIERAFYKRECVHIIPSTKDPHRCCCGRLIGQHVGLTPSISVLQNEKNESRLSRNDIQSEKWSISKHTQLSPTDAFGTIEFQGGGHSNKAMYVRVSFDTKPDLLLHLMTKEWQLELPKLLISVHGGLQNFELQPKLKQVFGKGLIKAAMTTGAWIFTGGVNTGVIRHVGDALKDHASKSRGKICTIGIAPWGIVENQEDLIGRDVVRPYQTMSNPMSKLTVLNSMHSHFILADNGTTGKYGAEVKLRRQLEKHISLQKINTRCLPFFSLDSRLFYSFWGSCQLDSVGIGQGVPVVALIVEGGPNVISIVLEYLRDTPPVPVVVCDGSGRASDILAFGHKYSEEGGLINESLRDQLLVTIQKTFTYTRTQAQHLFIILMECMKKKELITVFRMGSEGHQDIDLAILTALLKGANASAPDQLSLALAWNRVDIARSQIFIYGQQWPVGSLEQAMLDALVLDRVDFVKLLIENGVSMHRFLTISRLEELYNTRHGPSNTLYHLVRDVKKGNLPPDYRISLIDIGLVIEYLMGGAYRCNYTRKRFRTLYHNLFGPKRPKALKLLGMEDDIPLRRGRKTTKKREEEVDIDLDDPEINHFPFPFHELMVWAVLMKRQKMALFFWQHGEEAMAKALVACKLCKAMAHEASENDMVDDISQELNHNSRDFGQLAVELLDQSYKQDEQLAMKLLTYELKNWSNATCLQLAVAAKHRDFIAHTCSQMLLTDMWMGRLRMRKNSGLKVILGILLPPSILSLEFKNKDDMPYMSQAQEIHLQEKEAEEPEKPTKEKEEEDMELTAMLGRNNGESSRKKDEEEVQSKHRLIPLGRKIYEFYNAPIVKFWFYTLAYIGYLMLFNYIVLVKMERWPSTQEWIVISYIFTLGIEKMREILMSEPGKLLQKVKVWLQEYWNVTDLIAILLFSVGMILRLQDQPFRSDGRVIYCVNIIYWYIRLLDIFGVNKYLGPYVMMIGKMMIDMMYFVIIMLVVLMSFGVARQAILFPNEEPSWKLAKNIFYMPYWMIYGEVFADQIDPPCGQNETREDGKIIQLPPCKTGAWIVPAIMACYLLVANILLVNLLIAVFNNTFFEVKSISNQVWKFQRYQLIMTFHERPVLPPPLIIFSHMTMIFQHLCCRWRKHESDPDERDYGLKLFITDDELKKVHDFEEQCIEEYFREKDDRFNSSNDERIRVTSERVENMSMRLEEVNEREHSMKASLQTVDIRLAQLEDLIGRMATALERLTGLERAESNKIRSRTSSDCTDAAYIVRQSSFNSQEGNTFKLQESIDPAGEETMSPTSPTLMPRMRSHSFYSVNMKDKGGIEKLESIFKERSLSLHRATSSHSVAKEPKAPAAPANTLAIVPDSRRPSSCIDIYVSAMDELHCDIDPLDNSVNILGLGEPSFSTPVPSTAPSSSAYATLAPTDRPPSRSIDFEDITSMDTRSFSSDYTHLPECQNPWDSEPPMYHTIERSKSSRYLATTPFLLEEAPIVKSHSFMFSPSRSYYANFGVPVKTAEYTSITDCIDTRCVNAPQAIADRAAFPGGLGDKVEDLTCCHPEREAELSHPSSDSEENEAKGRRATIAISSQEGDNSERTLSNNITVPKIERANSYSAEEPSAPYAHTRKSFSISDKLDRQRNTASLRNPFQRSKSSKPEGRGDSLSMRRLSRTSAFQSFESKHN

Compound	effect on TRPM3 (human TRPM3)	suppression of OAG- or AlF4-induced TRPC6 activation, intracellular exposure (inside, pipet solution) (TRPC6 [1]; 1 μM in pipet solution)	block of TRPC6 whole-cell current, blocker applied via the bath solution (outside) (TRPC6 [1]; 1 μM, OAG or AlF4- activation, holding potential -60 mV)	effect on TRPV1 (rat TRPV1)	hypoxia-induced increase in pulmonary artery pressure (PAP) [2]	increase in lung wet weight (edema formation) under hypoxic treatment (lung edema formation)	effect on TRPM2 (human TRPM2)	inhibition of other TRP channels (other TRP channels)	effect on TRPM8 (human TRPM8)	cytotoxic effect (propidium iodide exclusion) (HEK293 cells)	inhibition of calcium influx via TRPC6 (TRPC6 [3])
larixol acetate	not affected	not sufficient to suppress	efficient block	not affected	completely abrogated	prevented the increase in lung wet weight	not affected	not, or only poorly, inhibited	not affected	no cytotoxic effect	selectively inhibit calcium influx via TRPC6
C=C[C@@](C)(O)CC[C@H]1C(=C)C[C@H](O)[C@H]2C(C)(C)CCC[C@]12C [larixol]	not affected			not affected			not affected	not, or only poorly, inhibited	not affected		selectively inhibit calcium influx via TRPC6
